Read-outs that look alike come from different tables or passages of the source.
Legend:
[1] = target: T1, androgen receptor (AR) splicing variant AR-v7 (Homo sapiens, UniProt P10275); experiment: Degradation activity on androgen receptor splicing variant AR-v7 in 22RV1 cells (ELISA); assay type: cell-based; settings: AR-v7 degradation in 22RV1 cells, 48 h, class symbols
T1 construct: The degradation activity of compounds on AR-v7 in 22RV1 cells; host or cells: 22RV1 cells
T1 sequence (P10275 1-644 isoform P10275-3): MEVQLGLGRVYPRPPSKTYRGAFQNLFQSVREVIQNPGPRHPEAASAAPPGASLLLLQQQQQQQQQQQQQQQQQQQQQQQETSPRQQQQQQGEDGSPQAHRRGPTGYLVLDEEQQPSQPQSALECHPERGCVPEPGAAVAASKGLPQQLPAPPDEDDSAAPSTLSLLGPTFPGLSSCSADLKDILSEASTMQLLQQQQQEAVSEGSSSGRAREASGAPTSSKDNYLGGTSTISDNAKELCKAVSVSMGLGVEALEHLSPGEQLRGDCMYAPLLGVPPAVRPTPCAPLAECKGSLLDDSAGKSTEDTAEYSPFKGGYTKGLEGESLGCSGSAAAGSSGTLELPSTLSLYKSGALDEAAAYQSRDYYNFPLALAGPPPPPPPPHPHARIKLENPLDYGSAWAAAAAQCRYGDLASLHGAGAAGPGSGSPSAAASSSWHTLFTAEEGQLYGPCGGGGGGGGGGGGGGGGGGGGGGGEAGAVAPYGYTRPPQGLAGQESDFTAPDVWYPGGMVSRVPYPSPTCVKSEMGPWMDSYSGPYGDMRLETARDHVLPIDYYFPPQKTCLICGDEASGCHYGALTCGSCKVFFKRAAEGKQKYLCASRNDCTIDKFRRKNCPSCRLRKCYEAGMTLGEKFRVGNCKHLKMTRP

22RV1 cells = settings: Homo sapiens, 22Rv1, 144 h
Method: • 22RV1 cell lines (Cobioer, CBP6034) • Penicillin-Streptomycin (Hyclone, Cat. No. SV30010) • Cell counting kit-8 (Signalway Antibody, Cat. No. CP002)
Then, two wells were set for each concentration. 20 μL of the diluted compound solution was added to the cell culture well, and then the plate was gently shaken to mix. In addition, the experiment included 3 negative control wells only containing cells and 3 blank control wells only containing culture medium.

[2] = read-out: 22RV1 IC50 (nM), 22RV1 cells, 6 days culture, CCK-8, OD 450 nm

Row | Structure (SMILES) | DC50 [1] | IC50 (22RV1 cells; [2]) | IC50 (22RV1 cells; read-out: 22RV1 IC50 (nM))
1 | CC(C)(c1ccc(Oc2nccc(N3CC4(COC4)C3)n2)cc1)c1ccc(O[C@H]2C[C@H](Nc3ccc4c(c3)C(=O)N(C3CCC(=O)NC3=O)C4=O)C2)cc1 (stereo partly drawn) [Example 156] | < 10 nM | 10 nM | 
2 | CCC(CC)(c1ccc(Oc2cnc(C(C)O)cn2)cc1)c1ccc(O[C@H]2C[C@@H](Nc3ccc4c(c3)C(=O)N(C3CCC(=O)NC3=O)C4=O)C2)cc1 (stereo partly drawn) [Example 295] | < 10 nM | 11 nM | 
3 | CC(C)(c1ccc(Oc2ncc(N3CC4(COC4)C3)cn2)cc1)c1ccc(O[C@H]2C[C@H](Nc3ccc4c(c3)C(=O)N(C3CCC(=O)NC3=O)C4=O)C2)cc1 (stereo partly drawn) [Example 311] | < 10 nM | 18 nM | 
4 | CCOc1nccc(COc2ccc(C(C)(C)c3ccc(OCCCNc4ccc5c(c4)C(=O)N(C4CCC(=O)NC4=O)C5=O)cc3)cc2)n1 (stereo not drawn) [Example 69, 2-(2,6-dioxopiperidin-3-yl)-5-((3-(4-(2-(4-((2-ethoxypyrimidin-4-yl)methoxy)phenyl)propan-2-yl)phenoxy)propyl)amino)isoindolin-1,3-dione] | 11 to 100 nM | 50 nM | 
5 | CC(C)(c1ccc(OCCCNc2ccc3c(c2)C(=O)N(C2CCC(=O)NC2=O)C3=O)cc1)c1ccc(OCc2ccnc(N)n2)cc1 (stereo not drawn) [Example 74, 5-((3-(4-(2-(4-((2-aminopyrimidin-4-yl)methoxy)phenyl)propan-2-yl)phenoxy)propyl)amino)-2-(2,6-dioxopiperidin-3-yl)isoindolin-1,3-dione] | 11 to 100 nM | 31 nM | 
6 | CC(C)(c1ccc(OCCCNc2ccc3c(c2)C(=O)N(C2CCC(=O)NC2=O)C3=O)cc1)c1ccc(OCc2ccnc(-n3nccn3)n2)cc1 (stereo not drawn) [Example 229, 5-((3-(4-(2-(4-((2-(2H-1,2,3-triazol-2-yl)pyrimidin-4-yl)methoxy)phenyl)propan-2-yl)phenoxy)propyl)amino)-2-(2,6-dioxopiperidin-3-yl)isoindolin-1,3-dione] | 11 to 100 nM | 31 nM | 
7 | CC(C)(c1ccc(OCc2ccnc(NC3COC3)n2)cc1)c1ccc(O[C@H]2C[C@@H](Nc3ccc4c(c3)C(=O)N(C3CCC(=O)NC3=O)C4=O)C2)cc1 (stereo partly drawn) [Example 237] | < 10 nM | 9 nM | 
8 | CC(C)(c1ccc(OCCCCCCCCOCCCCNc2ccc3c(c2)C(=O)N(C2CCC(=O)NC2=O)C3=O)cc1)c1ccc(OCc2ccnc(N3CC4(COC4)C3)n2)cc1 (stereo not drawn) [Example 61, 5-((4-((8-(4-(2-(4-((2-(2-oxa-6-azaspiro[3.3]heptan-6-yl)pyrimidin-4-yl)methoxy)phenyl)propan-2-yl)phenoxy)octyl)oxy)butyl)amino)-2-(2,6-dioxopiperidin-3-yl)isoindolin-1,3-dione] | 1000 to 5000 nM |  | 4000 nM
9 | CCC(CC)(c1ccc(Oc2cnc(C(C)=O)cn2)cc1)c1ccc(O[C@H]2C[C@@H](Nc3ccc4c(c3)C(=O)N(C3CCC(=O)NC3=O)C4=O)C2)cc1 (stereo partly drawn) [Example 296] | < 10 nM | 7 nM | 
10 | CC(C)(c1ccc(Oc2ccnc(N3CC4(COC4)C3)n2)cc1)c1ccc(O[C@H]2C[C@H](Nc3ccc4c(c3)C(=O)N(C3CCC(=O)NC3=O)C4=O)C2)cc1 (stereo partly drawn) [Example 244, 5-((1r,3r)-3-(4-(2-(4-(4-((2-(2-oxa-6-azaspiro[3.3]heptane-6-yl)pyrimidin-4-yl)oxy)phenyl)propan-2-yl)phenoxy)cyclobutyl)amino)-2-(2,6-dioxopiperidin-3-yl)isoindolin-1,3-dione] | < 10 nM | 6 nM | 
11 | CC(C)(c1ccc(OCc2ccnc(N3CC4(CCOCC4)C3)n2)cc1)c1ccc(O[C@H]2C[C@@H](Nc3ccc4c(c3)C(=O)N(C3CCC(=O)NC3=O)C4=O)C2)cc1 (stereo partly drawn) [Example 89, 5-(((1s,3s)-3-(4-(2-(4-((2-(7-oxa-2-azaspiro[3.5]nonan-2-yl)pyrimidin-4-yl)methoxy)phenyl)propan-2-yl)phenoxy)cyclobutyl)amino)-2-(2,6-dioxopiperidin-3-yl)isoindolin-1,3-dione] | < 10 nM | 16 nM | 
12 | CC(C)(c1ccc(Oc2ccc(-n3ccnn3)nc2)cc1)c1ccc(O[C@H]2C[C@H](Nc3ccc4c(c3)C(=O)N(C3CCC(=O)NC3=O)C4=O)C2)cc1 (stereo partly drawn) [Example 207, 5-((1r,3r)-3-(4-(2-(4-((6-(1H-1,2,3-triazol-1-yl)pyridin-3-yl)oxy)phenyl)propan-2-ylphenoxy)cyclobutyl)amino)-2-(2,6-dioxopiperidin-3-yl) isoindolin-1,3-dione] | < 10 nM | 16 nM | 
13 | Cc1nnc(-c2cnc(Oc3ccc(C(C)(C)c4ccc(O[C@H]5C[C@H](Nc6ccc7c(c6)C(=O)N(C6CCC(=O)NC6=O)C7=O)C5)cc4)cc3)o2)o1 (stereo partly drawn) [Example 96, 2-(2,6-dioxopiperidin-3-yl)-5-(((1r,3r)-3-(4-(2-(4-((5-(5-methyl-1,3,4-oxadiazol-2-yl)oxazol-2-yl)oxy)phenyl)propan-2-yl)phenoxy)cyclobutyl)amino) isoindolin-1,3-dione] | < 10 nM | 25 nM | 
14 | CNC(=O)c1nccc(COc2ccc(C(C)(C)c3ccc(O[C@H]4C[C@H](Nc5ccc6c(c5)C(=O)N(C5CCC(=O)NC5=O)C6=O)C4)cc3)cc2)n1 (stereo partly drawn) [Example 186, 4-((4-(2-(4-((1r,3r)-3-((2-(2,6-dioxopiperidin-3-yl)-1,3-dioxoisoindolin-5-yl)amino)cyclobutyloxy)phenyl)propan-2-yl)phenoxy)methyl)-N-methylpyrimidin-2-carbonylamine] | 11 to 100 nM | 32 nM | 
15 | Cc1nnc(-c2ncc(F)cc2Oc2ccc(C(C)(C)c3ccc(O[C@H]4C[C@H](Nc5ccc6c(c5)C(=O)N(C5CCC(=O)NC5=O)C6=O)C4)cc3)cc2)o1 (stereo partly drawn) [Example 95, 2-(2,6-dioxopiperidin-3-yl)-5-(((1r,3r)-3-(4-(2-(4-((5-fluoro-2-(5-methyl-1,3,4-oxadiazol-2-yl)pyridin-3-yl)oxy)phenyl)propan-2-yl)phenoxy)cyclobutyl)amino)isoindolin-1,3-dione] | < 10 nM | 6 nM | 
16 | CC(Oc1ccc(C(C)(C)c2ccc(O[C@H]3C[C@H](Nc4ccc5c(c4)C(=O)N(C4CCC(=O)NC4=O)C5=O)C3)cc2)cc1)c1ncnc(N2CC3(COC3)C2)c1F (stereo partly drawn) [Example 280] | < 10 nM | 7 nM | 
17 | CC(C)(c1ccc(Oc2nccc(N3CC4(COC4)C3)n2)cc1)c1ccc(O[C@H]2C[C@@H](Nc3ccc4c(c3)C(=O)N(C3CCC(=O)NC3=O)C4=O)C2)cc1 (stereo partly drawn) [Example 155] | < 10 nM | 39 nM | 

Further lines, with some results ahead:

Row | DC50 [1] | IC50 (22RV1 cells; [2]) | Structure (SMILES) | IC50 (22RV1 cells; read-out: 22RV1 IC50 (nM))
18 | < 10 nM | 8 nM | CC(C)(c1ccc(Oc2cc(-n3nccn3)ncn2)cc1)c1ccc(O[C@H]2C[C@H](Nc3ccc4c(c3)C(=O)N(C3CCC(=O)NC3=O)C4=O)C2)cc1 (stereo partly drawn) [Example 578] | 
19 | < 10 nM | 6 nM | CC(=O)c1ccc(Oc2ccc(C(C)(C)c3ccc(O[C@H]4C[C@@H](Nc5ccc6c(c5)C(=O)N(C5CCC(=O)NC5=O)C6=O)C4)cc3)cc2)nn1 (stereo partly drawn) [Example 523] | 
20 | < 10 nM | 6 nM | CC(C)(c1ccc(OCc2ccnc(N3CC(O)C3)n2)cc1)c1ccc(O[C@H]2C[C@@H](Nc3ccc4c(c3)C(=O)N(C3CCC(=O)NC3=O)C4=O)C2)cc1 (stereo partly drawn) [Example 453] | 
21 | < 10 nM | 2 nM | CC(=O)c1ncc(Oc2ccc(C3(c4ccc(O[C@H]5C[C@H](Nc6ccc7c(c6)C(=O)N(C6CCC(=O)NC6=O)C7=O)C5)cc4)CCCCC3)cc2)cn1 (stereo partly drawn) [Example 529] | 
22 | < 10 nM | 3 nM | Cc1nnc(-c2nccc(COc3ccc(C(C)(C)c4ccc(O[C@H]5C[C@@H](Nc6ccc7c(c6)C(=O)N(C6CCC(=O)NC6=O)C7=O)C5)cc4)cc3)n2)o1 (stereo partly drawn) [Example 465] | 
23 | < 10 nM | 11 nM | Cc1nnc(-c2cccc(COc3ccc(C(C)(C)c4ccc(O[C@H]5C[C@H](Nc6ccc7c(c6)C(=O)N(C6CCC(=O)NC6=O)C7=O)C5)cc4)cc3)n2)o1 (stereo partly drawn) [Example 463] | 
24 | < 10 nM | 8 nM | CC(C)(c1ccc(OCc2cncc(N3CC4(COC4)C3)n2)cc1)c1ccc(O[C@H]2C[C@H](Nc3ccc4c(c3)C(=O)N(C3CCC(=O)NC3=O)C4=O)C2)cc1 (stereo partly drawn) [Example 539] | 
25 | < 10 nM | 6 nM | CC(C)(c1ccc(Oc2ccc(CN3CC(F)C3)nn2)cc1)c1ccc(O[C@H]2C[C@H](Nc3ccc4c(c3)C(=O)N(C3CCC(=O)NC3=O)C4=O)C2)cc1 (stereo partly drawn) [Example 478] | 
26 | < 10 nM | 10 nM | CNc1nccc(COc2ccc(C(C)(C)c3ccc(O[C@H]4C[C@H](Nc5ccc6c(c5)C(=O)N(C5CCC(=O)NC5=O)C6=O)C4)cc3)cc2)n1 (stereo partly drawn) [Example 395] | 
27 | 11 to 100 nM | 7 nM | CC(=O)c1ncc(Oc2ccc(C3(c4ccc(O[C@H]5C[C@H](Nc6ccc7c(c6)C(=O)N(C6CCC(=O)NC6=O)C7=O)C5)cc4)CC3)cc2)cn1 (stereo partly drawn) [Example 378, 5-(((1r,3r)-3-(4-(1-(4-((2-acetylpyrimidin-5-yl)oxy)phenyl)cyclopropyl)phenoxy)cyclobutyl)amino)-2-(2,6-dioxopiperidin-3-yl)isoindolin-1,3-dione] | 
